{
  "source": "patent US5955423A",
  "about": "(priority 1995, dated 1999)",
  "key": {"[1]": {"tested_on": "murine leukemia (L1210 or P388), murine solid tumor, human solid tumor and low malignancy fibroblast (LML) cells", "conditions": "for Differential in Zone Units, Corbett Assay: μg/disk as for E3; for Type of Cytotoxicity, Corbett Assay: μg/disk: 1 12.5, 2 25, 3 25, 4 20, 5 2.9, 6 250, 8 30, 5-FU 2.5, VP-16 5, taxol 0.2, ^c selective against drug-sensitive and drug-resistant cell lines, ^d drug-sensitive cell lines only"}, "[2]": {"tested_on": "SKOV3 cells (human ovarian carcinoma)", "assay": "Cell proliferation assay (SRB staining), SKOV3 cells", "format": "cell-based", "conditions": "SKOV3 cells treated 24 hours with IC50 doses, then drug-free medium"}, "[3]": {"tested_on": "A-10 rat aortic smooth muscle cells", "format": "cell-based", "conditions": "A-10 cells", "experimental": "A-10 cells were grown to near-confluency on glass coverslips in BME/10% FBS. Compounds in PBS were added to the indicated final concentrations and cells were incubated for an additional 24 hours. For the staining of microtubules and intermediate filaments, the cells were fixed with cold methanol and incubated with PBS containing 10% calf serum to block nonspecific binding sites. Cells were then incubated at 37° C. for 60 min with either monoclonal anti-p-tubulin or with monoclonal anti-vimentin at dilutions recommended by the manufacturer. Bound primary antibodies were subsequently visualized by a 45-minute incubation with fluorescein-conjugated rabbit antimouse IgG. The coverslips were mounted on microscope slides and the fluorescence patterns were examined and photographed using a Zeiss Photomicroscope Ill equipped with epifluorescence optics for fluorescein. […] PBS containing 100 nM TRITC-phalloidin was then added and the mixture was allowed to incubate for 45 min at 37° C. The cells were washed rapidly three times with PBS before the coverslips were mounted and immediately photographed as described above.\nAfter 24 hours, microtubules and vimentin intermediate filaments were visualized by indirect immunofluorescence and microfilaments were stained using TRITC-phalloidin. The morphological effects of each drug were examined.\nAfter 24 hours, microtubule organization was examined by immunofluorescence as described above.\nThe cells were then washed and incubated in drug-free medium for periods of 1 hour or 24 hours."}, "H125 Human Adenosq-lung": {"tested_on": "H125 Human Adenosq-lung", "conditions": "Exp # 1823; SC H125 Human Adenosq-lung, SCID mice; 8 inj. IV; total dose 14.4 mg/kg", "procedure": "(§1) Gross log kill is defined as T-C/3.2 Td where T is the median time in days for the tumors of the treated group to reach 750 mg, C is the median time in days for the tumors of the control group to reach 750 mg, and Td is the tumor volume doubling time."}, "LNCaP Human Prostate": {"tested_on": "LNCaP Human Prostate", "assay": "In vivo activity, SC LNCaP tumor", "conditions": "Exp # 1841, 6 inj. IV, total dose 6.5 mg/kg", "procedure": "as §1"}, "M17/0 (Adr. Sens.)": {"tested_on": "M17/0 (Adr. Sens.)", "assay": "In vivo activity, SC M17/0 tumor", "conditions": "Exp # 1833; SC M17/0 (Adr. Sens.); 5 inj. IV; total dose 5.4 mg/kg", "procedure": "as §1"}, "[4]": {"tested_on": "SKOV3 (human ovarian carcinoma) cell line", "assay": "Cytotoxicity against SKOV3 cell line", "conditions": "Table 2"}, "[5]": {"tested_on": "KB (human nasopharyngeal carcinoma) cell line", "assay": "Cytotoxicity against KB cell line", "format": "cell-based"}, "[6]": {"tested_on": "murine and human tumors implanted in mice", "procedure": "as §1"}, "[7]": {"tested_on": "Human Sm Cell L. DMS273 SCID", "assay": "In vivo activity, SC DMS273 tumor", "conditions": "Exp # 1596, 6 inj. IV, total dose 7.3 mg/kg", "procedure": "as §1"}, "strains of Cryptococcus": {"tested_on": "strains of Cryptococcus", "conditions": "found by researchers at Merck; cited from earlier work"}, "[8]": {"tested_on": "Colon 51 (colon adenocarcinoma #51)", "assay": "In vivo activity, SC Colon 51 tumor", "conditions": "Exp # 1636, 7 inj. IV, total dose 28.1 mg/kg", "procedure": "as §1"}, "[9]": {"tested_on": "Mam 16/Taxol (taxol-resistant mammary #16/C/RP)", "assay": "In vivo activity, SC Mam 16/Taxol tumor", "conditions": "Exp # 1733, 5 inj. IV, total dose 16.5 mg/kg", "procedure": "as §1"}, "[10]": {"tested_on": "Colon 38 (colon adenocarcinoma #38)", "conditions": "Exp # 1560; SC Colon 38; 8 inj. IV; total dose 10.3 mg/kg", "procedure": "as §1"}, "MX-1 Human Breast": {"tested_on": "MX-1 Human Breast", "assay": "In vivo activity, SC MX-1 tumor", "conditions": "Exp # 1806; SC MX-1 Human Breast, SCID mice; 8 inj. IV; total dose 12 mg/kg", "procedure": "as §1"}, "Mam 16/C (mammary #16/C)": {"tested_on": "Mam 16/C (mammary #16/C)", "assay": "In vivo activity, SC Mam 16/C tumor", "conditions": "Exp # 1720, 5 inj. IV, total dose 13.2 mg/kg", "procedure": "as §1"}, "[11]": {"tested_on": "LoVo (human colon-carcinoma) cell line", "assay": "Cytotoxicity against LoVo cell line", "format": "cell-based"}, "[12]": {"conditions": "24 hours, 2 μM cytochalasin B, 100 nM vinblastine or 10 nM cryptophycin compounds"}},
  "data": [
    {"compound": "CC(=O)O[C@H]1C(=O)[C@@]2(C)[C@H]([C@H](OC(=O)c3ccccc3)[C@]3(O)C[C@H](OC(=O)[C@H](O)[C@@H](NC(=O)c4ccccc4)c4ccccc4)C(C)=C1C3(C)C)[C@]1(OC(C)=O)CO[C@@H]1C[C@@H]2O", "note": "[taxol, reference compound]", "values": [
      {"measurement": "Differential in Zone Units, Corbett Assay", "setting": "[1]", "value": "≥ 400", "unit": "Zone Units"},
      {"measurement": "Type of Cytotoxicity, Corbett Assay", "setting": "[1]", "value": "M/H/T"},
      {"measurement": "increase in cell number in the 24 hours following removal of the drug", "setting": "[2]", "value": "0.2- to 0.4 fold"}
    ]},
    {"compound": "CC[C@]1(O)C[C@@H]2CN(CCc3c([nH]c4ccccc34)[C@@](C(=O)OC)(c3cc4c(cc3OC)N(C)[C@H]3[C@@](O)(C(=O)OC)[C@H](OC(C)=O)[C@]5(CC)C=CCN6CC[C@]43[C@@H]65)C2)C1", "note": "[vinblastine]", "values": [
      {"measurement": "reversibility of microtubule depolymerization after removal of drug", "setting": "[3]; 100 nM vinblastine or 10 nM cryptophycins for 24 hr, then drug-free medium 1 hour or 24 hours", "value": "complete morphological recovery by 24 hour"},
      {"measurement": "microtubule depolymerization after taxol pretreatment", "setting": "[3]; 3 hours 10 μM taxol, then 100 nM vinblastine or 10 nM cryptophycin compound, 24 hours", "value": "pretreatment with taxol prevented microtubule depolymerization in response to vinblastine"},
      {"measurement": "effect on microfilaments", "setting": "[3]; [12]", "value": "Neither compound affected microfilament organization"},
      {"measurement": "effect on vimentin intermediate filaments", "setting": "[3]; [12]", "value": "vimentin intermediate filaments collapsed"},
      {"measurement": "increase in cell number in the 24 hours following removal of the drug", "setting": "[2]", "value": "approximately 3 fold"}
    ]},
    {"compound": "C=C1[C@@H](C)[C@H]2[C@H](Cc3ccccc3)NC(=O)[C@]23OC(=O)/C=C/[C@H](O)CCC[C@@H](C)C/C=C/[C@H]3[C@@H]1O", "note": "[Cytochalasin B, cytochalasin B]", "values": [
      {"measurement": "effect on microtubules", "setting": "[3]; [12]", "value": "did not affect the distribution of either microtubules or intermediate filaments"},
      {"measurement": "effect on vimentin intermediate filaments", "setting": "[3]; [12]", "value": "did not affect the distribution of either microtubules or intermediate filaments"}
    ]},
    {"compound": "COc1ccc(C[C@H]2NC(=O)/C=C/C[C@@H]([C@H](C)[C@H]3O[C@@H]3c3ccccc3)OC(=O)[C@H](CC(C)C)OC(=O)[C@H](C)CNC2=O)cc1Cl", "note": "[Cryptophycin 1]", "values": [
      {"measurement": "% Body Wt. Loss at Nadir", "setting": "H125 Human Adenosq-lung", "value": -15, "unit": "%"},
      {"measurement": "Cures", "setting": "H125 Human Adenosq-lung", "value": "0/5"},
      {"measurement": "Log Kill", "setting": "H125 Human Adenosq-lung", "value": 1.1},
      {"measurement": "T/C", "setting": "H125 Human Adenosq-lung", "value": 9, "unit": "%"},
      {"measurement": "dead", "setting": "H125 Human Adenosq-lung", "value": "1/5"},
      {"measurement": "% Body Wt. Loss at Nadir", "setting": "LNCaP Human Prostate", "value": -6, "unit": "%"},
      {"measurement": "T/C", "setting": "LNCaP Human Prostate", "value": 26, "unit": "%"},
      {"measurement": "% Body Wt. Loss at Nadir", "setting": "M17/0 (Adr. Sens.)", "value": -10, "unit": "%"},
      {"measurement": "Log Kill", "setting": "M17/0 (Adr. Sens.)", "value": "< 1"},
      {"measurement": "T/C", "setting": "M17/0 (Adr. Sens.)", "value": 23, "unit": "%"},
      {"measurement": "SKOV3 IC50", "setting": "[4]", "value": 0.026, "unit": "ng/mL"},
      {"measurement": "KB IC50", "setting": "[5]; Table 1", "value": 0.005, "unit": "ng/mL"},
      {"measurement": "KB IC50", "setting": "[5]; Table 2", "value": 0.0025, "unit": "ng/mL"},
      {"measurement": "tumor burden T/C", "setting": "[6]; five early stage murine tumors (colon #38, #51, taxol-sensitive and taxol-resistant mammary #16/C/RP, pancreatic #03) and MX-1 breast, H125 lung in SCID mice", "value": "less than 10%"},
      {"measurement": "lethal toxicity observed during testing", "setting": "[6]; in vivo testing", "value": "attributed to leucopenia"},
      {"measurement": "% Body Wt. Loss at Nadir", "setting": "[7]", "value": 0, "unit": "%"},
      {"measurement": "Cures", "setting": "[7]", "value": "0/5"},
      {"measurement": "Log Kill", "setting": "[7]", "value": "< 1"},
      {"measurement": "T/C", "setting": "[7]", "value": 27, "unit": "%"},
      {"measurement": "activity against strains of Cryptococcus", "setting": "strains of Cryptococcus", "value": "very active against strains of Cryptococcus"},
      {"measurement": "% Body Wt. Loss at Nadir", "setting": "[8]", "value": -11, "unit": "%"},
      {"measurement": "Log Kill", "setting": "[8]", "value": 1.3},
      {"measurement": "T/C", "setting": "[8]", "value": 7, "unit": "%"},
      {"measurement": "Differential in Zone Units, Corbett Assay", "setting": "[1]", "value": "> 400", "unit": "Zone Units"},
      {"measurement": "Type of Cytotoxicity, Corbett Assay", "setting": "[1]", "value": "E/T"},
      {"measurement": "% Body Wt. Loss at Nadir", "setting": "[9]", "value": 0, "unit": "%"},
      {"measurement": "Log Kill", "setting": "[9]", "value": 1.8},
      {"measurement": "T/C", "setting": "[9]", "value": 2, "unit": "%"},
      {"measurement": "Cures", "setting": "[10]", "value": "0/5"},
      {"measurement": "Log Kill", "setting": "[10]", "value": 1.5},
      {"measurement": "T/C", "setting": "[10]", "value": 6, "unit": "%"},
      {"measurement": "% Body Wt. Loss at Nadir", "setting": "MX-1 Human Breast", "value": -3, "unit": "%"},
      {"measurement": "Cures", "setting": "MX-1 Human Breast", "value": "0/5"},
      {"measurement": "Log Kill", "setting": "MX-1 Human Breast", "value": 2.0},
      {"measurement": "T/C", "setting": "MX-1 Human Breast", "value": 3, "unit": "%"},
      {"measurement": "% Body Wt. Loss at Nadir", "setting": "Mam 16/C (mammary #16/C)", "value": -1, "unit": "%"},
      {"measurement": "Cures", "setting": "Mam 16/C (mammary #16/C)", "value": "0/5"},
      {"measurement": "Log Kill", "setting": "Mam 16/C (mammary #16/C)", "value": 1.4},
      {"measurement": "T/C", "setting": "Mam 16/C (mammary #16/C)", "value": 5, "unit": "%"},
      {"measurement": "LoVo IC50", "setting": "[11]; Table 1", "value": 0.003, "unit": "ng/mL"},
      {"measurement": "LoVo IC50", "setting": "[11]; Table 2", "value": 0.001, "unit": "ng/mL"}
    ]}
  ]
}
